Results from ChEMBL document CHEMBL1201862, “PubChem BioAssay data set” (2004).
Activity calls are given as the source filed them.

Experiments:
[1] = target: T1, Delta-type opioid receptor (Homo sapiens, UniProt P41143); experiment: HTS Image-Based Screen for Antagonists of the DOR Receptor. [Related pubchem assays (depositor defined):AID1777, AID1785, AID1786, AID2133]; format: functional
[2] = inhibitors of firefly luciferase expression or activity, dose response, H4 neuroglioma cells, luminescence (AID 1990); format: functional, cell-based
Mu-type opioid receptor = Mu-type opioid receptor (Homo sapiens, UniProt P35372); experiment: HTS Image-Based Screen for Agonists of the MOR Receptor. [Related pubchem assays (depositor defined):AID1777, AID1785, AID1786, AID2133]; format: functional;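 note: imaging of beta-arrestin GFP recruitment into spots after receptor activation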
[3] = target: T1, Delta-type opioid receptor; experiment: HTS Image-Based Screen for Agonists of the DOR Receptor. [Related pubchem assays (depositor defined):AID1777, AID1786, AID2133]; format: functional
[4] = Luminescence Cell-Based Dose Response HTS to Identify Inhibitors of 5'UTR Stem-Loop Driven Prion Protein mRNA Translation in H4 Neuroglioblastoma Cells. [Related pubchem assays: 1827 (Project Summary), 1813 (Primary HTS)]; format: functional
Vero [5] = experiment: host cell cytotoxicity of antiviral hits, dose response, cytotoxicity control for West Nile virus antiviral project, secondary assay (AID 1650); format: functional; conditions: Chlorocebus sabaeus
[6] = inhibitors of SNCA 5'UTR-driven reporter translation, confirmation, H4 neuroglioma cells, luminescence (AID 1988); format: functional, cell-based
[7] = target: T2, Kappa-type opioid receptor (Homo sapiens, UniProt P41145); format: functional
Beta-galactosidase [8] = target: T3, Beta-galactosidase (Escherichia coli, UniProt Q8VNN2); format: functional
[9] = target: T2, Kappa-type opioid receptor; format: functional; remark: listed apart in the source
[10] = target: E3 ubiquitin-protein ligase Mdm2/Protein Mdm4 (Homo sapiens, UniProt O15151+Q00987); experiment: Mdm2-MdmX interaction inhibitors, dose response, luminescence detection (AID 504593); format: functional
Saccharomyces cerevisiae = experiment: NALP1 inhibitor project selectivity study, Caspase-1/ASC signal blockade IC50 in S. cerevisiae (AID 488863); format: functional, organism-based
[11] = target: NACHT, LRR and PYD domains-containing protein 1 (Homo sapiens, UniProt Q9C000); experiment: NALP1 inhibitors in yeast, dose response, luminescent (AID 488860); format: functional
cells [12] = format: functional, cell-based
cells [13] = format: functional, cell-based; remark: listed apart in the source
[14] = target: C-C chemokine receptor type 6 (Homo sapiens, UniProt P51684); experiment: CCR6 receptor antagonists, dose response, cell-based, luminescent beta-arrestin readout (AID 504728); format: functional
Beta-galactosidase [15] = target: T3, Beta-galactosidase; experiment: beta-galactosidase enzyme inhibitors and activators, dose response, artefact control for CCR6 antagonist project, biochemical, E. coli enzyme, set 3 (AID 504712); format: functional
Vero [16] = experiment: cells; format: functional; conditions: Chlorocebus sabaeus
Cannabinoid receptor 2 [17] = target: T4, Cannabinoid receptor 2 (Homo sapiens, UniProt P34972); experiment: SAR analysis of antagonists of the Cannabinoid Receptor 2 using an Image-Based Assay - Set 2. [Related pubchem assays (depositor defined):AID1961, AID1965]; format: functional
[18] = target: G-protein coupled receptor 55 (Homo sapiens, UniProt Q9Y2T6); experiment: SAR analysis of selective Agonists of GPR55 using an Image-Based Assay - Set 2. [Related pubchem assays (depositor defined):AID1961, AID1965]; format: functional
Cannabinoid receptor 2 [19] = target: T4, Cannabinoid receptor 2; experiment: SAR analysis of agonists of the Cannabinoid Receptor 2 using an Image-Based Assay - Set 2. [Related pubchem assays (depositor defined):AID1961, AID1965]; format: functional
[20] = target: T5, G-protein coupled receptor 35 (Homo sapiens, UniProt Q9HC97); experiment: SAR analysis of Agonists of the GPR35 Receptor using an Image-Based Assay - Set 3. [Related pubchem assays (depositor defined):AID1961, AID1965]; format: functional
Cannabinoid receptor 1 [21] = target: T6, Cannabinoid receptor 1 (Homo sapiens, UniProt P21554); experiment: SAR analysis of antagonists of the Cannabinoid Receptor 1 using an Image-Based Assay - Set 3. [Related pubchem assays (depositor defined):AID1961, AID1965]; format: functional
Cannabinoid receptor 1 [22] = target: T6, Cannabinoid receptor 1; experiment: SAR analysis of agonists of the Cannabinoid Receptor 1 using an Image-Based Assay - Set 3. [Related pubchem assays (depositor defined):AID1961, AID1965]; format: functional
[23] = target: T5, G-protein coupled receptor 35; experiment: SAR analysis of Antagonists of the GPR35 Receptor using an Image-Based Assay - Set 4. [Related pubchem assays (depositor defined):[…]]; format: functional
HeLa = experiment: HeLa cell cytotoxicity, dose response, cytotoxicity control, 24 h, cherry-picked samples (AID 504726); format: functional, cell-based; conditions: Homo sapiens;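 note: potency for cytotoxicity as loss of luminescence signal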
ORF 73 = ORF 73 (Human herpesvirus 8, UniProt O40947); experiment: inhibitors of C-LANA binding to LBS DNA, dose response, biochemical, fluorescence polarization, cherry-picked samples (AID 504725); set-up: species or system Human gammaherpesvirus 8;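 note: fluorescence polarization of a labeled DNA duplex reporting LANA DNA binding; potency is for inhibitors that block LANA binding to the DNA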
Protein S100-A4 = Protein S100-A4 (Homo sapiens, UniProt P26447); experiment: S100A4-myosin IIA binding inhibitor potency, dose response, biochemical, fluorescence polarization, cherry-picked hits (AID 687001); format: functional
Paired box protein Pax-8 = Paired box protein Pax-8 (Homo sapiens, UniProt Q06710); experiment: inhibitors of PAX8-driven TPO luciferase reporter, dose response, RMG-I cells, cherry-pick (AID 687027); format: functional, cell-based;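 note: luciferase reporter driven by Pax8 target thyroperoxidase promoter measured by SteadyGlo luminescence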
T-cell = experiment: inhibitors of CD8+ T cell–vesicle binding, dose response, mouse 2C CD8+ T cells, flow cytometry (AID 485284); format: functional
[24] = target: Melanin-concentrating hormone receptor 1 (Homo sapiens, UniProt Q99705); experiment: Late-stage fluorescence-based counterscreen for antagonists of the G-protein coupled receptor 7 (GPR7): cell-based dose response assay to identify antagonists of the melanin-concentrating hormone receptor 1 (MCHR1). [Related pubchem assays (depositor defined):AID1861, AID1880, AID1952, AID2148, AID2251, AID2257, AID485339]; format: functional;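 note: stimulated with 30 nM MCH peptide agonist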

T6 sequence (P21554 whole entry): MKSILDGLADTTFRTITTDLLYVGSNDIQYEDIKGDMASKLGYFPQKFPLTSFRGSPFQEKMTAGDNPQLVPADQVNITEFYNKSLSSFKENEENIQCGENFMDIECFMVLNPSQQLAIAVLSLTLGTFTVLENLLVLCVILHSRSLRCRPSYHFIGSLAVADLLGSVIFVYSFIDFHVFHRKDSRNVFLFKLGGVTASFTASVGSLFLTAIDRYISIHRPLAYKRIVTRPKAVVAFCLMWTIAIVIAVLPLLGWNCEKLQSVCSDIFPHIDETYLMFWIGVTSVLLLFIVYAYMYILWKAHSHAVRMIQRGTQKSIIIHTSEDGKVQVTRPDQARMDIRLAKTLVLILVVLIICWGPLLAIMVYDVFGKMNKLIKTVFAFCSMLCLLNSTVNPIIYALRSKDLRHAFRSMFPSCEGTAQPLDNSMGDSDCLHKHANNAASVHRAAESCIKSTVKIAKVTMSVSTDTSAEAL
T3 sequence (Q8VNN2 whole entry): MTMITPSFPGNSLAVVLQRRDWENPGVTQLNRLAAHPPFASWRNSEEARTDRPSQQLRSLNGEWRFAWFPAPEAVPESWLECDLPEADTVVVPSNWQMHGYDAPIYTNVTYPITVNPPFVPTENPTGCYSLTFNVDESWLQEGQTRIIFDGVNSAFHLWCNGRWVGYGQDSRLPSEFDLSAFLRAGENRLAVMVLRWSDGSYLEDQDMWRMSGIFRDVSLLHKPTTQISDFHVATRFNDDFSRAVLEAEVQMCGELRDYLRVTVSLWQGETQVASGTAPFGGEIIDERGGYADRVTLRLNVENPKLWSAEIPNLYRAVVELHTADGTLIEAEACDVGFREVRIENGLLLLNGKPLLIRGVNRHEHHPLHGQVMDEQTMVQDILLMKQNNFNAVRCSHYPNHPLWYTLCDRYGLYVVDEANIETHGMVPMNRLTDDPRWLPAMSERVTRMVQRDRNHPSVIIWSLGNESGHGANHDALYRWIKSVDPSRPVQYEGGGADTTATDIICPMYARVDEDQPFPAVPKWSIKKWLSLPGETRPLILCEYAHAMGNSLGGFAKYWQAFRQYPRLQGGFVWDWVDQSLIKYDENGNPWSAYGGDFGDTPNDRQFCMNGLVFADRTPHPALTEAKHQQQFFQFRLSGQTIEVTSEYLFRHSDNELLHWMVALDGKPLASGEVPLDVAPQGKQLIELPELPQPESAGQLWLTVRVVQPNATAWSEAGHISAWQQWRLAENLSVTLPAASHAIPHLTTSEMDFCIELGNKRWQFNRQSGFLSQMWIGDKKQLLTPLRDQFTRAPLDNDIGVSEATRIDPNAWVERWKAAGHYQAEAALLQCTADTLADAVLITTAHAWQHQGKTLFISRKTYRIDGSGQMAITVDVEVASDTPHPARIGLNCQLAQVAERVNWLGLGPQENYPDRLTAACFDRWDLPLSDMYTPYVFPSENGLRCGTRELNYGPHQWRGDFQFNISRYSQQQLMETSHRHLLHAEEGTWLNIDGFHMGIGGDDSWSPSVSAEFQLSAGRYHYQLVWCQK
T5 sequence (Q9HC97 whole entry): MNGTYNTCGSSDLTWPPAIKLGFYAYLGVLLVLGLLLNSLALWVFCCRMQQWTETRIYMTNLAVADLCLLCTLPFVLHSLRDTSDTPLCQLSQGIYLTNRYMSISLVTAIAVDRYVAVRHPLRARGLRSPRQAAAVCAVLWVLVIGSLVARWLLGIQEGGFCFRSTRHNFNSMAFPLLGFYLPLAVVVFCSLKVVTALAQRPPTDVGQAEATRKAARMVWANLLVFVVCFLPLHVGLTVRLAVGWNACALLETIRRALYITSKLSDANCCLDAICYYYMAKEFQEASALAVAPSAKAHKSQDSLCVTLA
T1 sequence (P41143 whole entry): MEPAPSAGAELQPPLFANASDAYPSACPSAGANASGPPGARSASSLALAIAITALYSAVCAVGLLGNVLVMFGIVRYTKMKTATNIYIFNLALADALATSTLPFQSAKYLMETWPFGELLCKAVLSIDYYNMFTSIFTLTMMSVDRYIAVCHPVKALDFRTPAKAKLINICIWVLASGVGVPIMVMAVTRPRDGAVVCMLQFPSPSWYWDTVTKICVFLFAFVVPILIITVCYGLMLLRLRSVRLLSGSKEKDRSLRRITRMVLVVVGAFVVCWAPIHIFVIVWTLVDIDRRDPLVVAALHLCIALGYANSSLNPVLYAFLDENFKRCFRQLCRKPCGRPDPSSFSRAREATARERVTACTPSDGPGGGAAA
T2 sequence (P41145 whole entry): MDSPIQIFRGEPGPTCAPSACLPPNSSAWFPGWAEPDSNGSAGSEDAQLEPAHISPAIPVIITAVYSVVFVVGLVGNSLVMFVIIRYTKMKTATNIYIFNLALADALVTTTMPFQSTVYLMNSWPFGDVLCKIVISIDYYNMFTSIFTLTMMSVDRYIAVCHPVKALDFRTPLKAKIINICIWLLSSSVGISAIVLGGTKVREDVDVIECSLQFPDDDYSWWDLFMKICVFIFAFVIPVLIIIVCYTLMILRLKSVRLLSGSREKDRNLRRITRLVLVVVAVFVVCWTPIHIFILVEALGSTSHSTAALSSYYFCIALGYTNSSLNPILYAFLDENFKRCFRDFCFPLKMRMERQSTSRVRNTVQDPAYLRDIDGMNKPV
T4 sequence (P34972 whole entry): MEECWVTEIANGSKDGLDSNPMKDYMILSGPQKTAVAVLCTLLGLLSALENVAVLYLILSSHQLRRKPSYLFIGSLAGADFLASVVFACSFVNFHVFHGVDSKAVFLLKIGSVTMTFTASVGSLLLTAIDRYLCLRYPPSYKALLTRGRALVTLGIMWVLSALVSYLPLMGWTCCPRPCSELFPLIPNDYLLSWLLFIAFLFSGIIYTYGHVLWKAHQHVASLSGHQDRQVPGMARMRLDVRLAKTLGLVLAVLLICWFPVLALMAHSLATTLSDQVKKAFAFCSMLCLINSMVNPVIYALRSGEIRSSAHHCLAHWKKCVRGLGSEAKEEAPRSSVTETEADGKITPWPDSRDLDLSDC
Chain of Protein S100-A4 (P26447 whole entry): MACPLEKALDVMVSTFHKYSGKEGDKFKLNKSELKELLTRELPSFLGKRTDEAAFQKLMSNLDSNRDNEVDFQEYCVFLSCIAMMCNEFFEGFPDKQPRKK
Chain of E3 ubiquitin-protein ligase Mdm2/Protein Mdm4 (Q00987 whole entry): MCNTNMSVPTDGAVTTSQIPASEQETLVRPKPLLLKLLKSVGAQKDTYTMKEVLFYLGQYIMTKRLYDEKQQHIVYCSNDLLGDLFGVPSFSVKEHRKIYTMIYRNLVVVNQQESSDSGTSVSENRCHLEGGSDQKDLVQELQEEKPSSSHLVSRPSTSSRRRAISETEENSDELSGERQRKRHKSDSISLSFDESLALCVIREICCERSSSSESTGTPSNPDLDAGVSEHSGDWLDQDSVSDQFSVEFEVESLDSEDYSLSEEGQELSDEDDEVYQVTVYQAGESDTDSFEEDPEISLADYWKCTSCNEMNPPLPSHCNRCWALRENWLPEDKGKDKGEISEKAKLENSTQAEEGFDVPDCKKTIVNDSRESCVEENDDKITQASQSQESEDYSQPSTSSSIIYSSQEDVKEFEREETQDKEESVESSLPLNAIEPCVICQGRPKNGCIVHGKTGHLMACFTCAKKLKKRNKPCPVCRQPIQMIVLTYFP
Chain of E3 ubiquitin-protein ligase Mdm2/Protein Mdm4 (O15151 whole entry): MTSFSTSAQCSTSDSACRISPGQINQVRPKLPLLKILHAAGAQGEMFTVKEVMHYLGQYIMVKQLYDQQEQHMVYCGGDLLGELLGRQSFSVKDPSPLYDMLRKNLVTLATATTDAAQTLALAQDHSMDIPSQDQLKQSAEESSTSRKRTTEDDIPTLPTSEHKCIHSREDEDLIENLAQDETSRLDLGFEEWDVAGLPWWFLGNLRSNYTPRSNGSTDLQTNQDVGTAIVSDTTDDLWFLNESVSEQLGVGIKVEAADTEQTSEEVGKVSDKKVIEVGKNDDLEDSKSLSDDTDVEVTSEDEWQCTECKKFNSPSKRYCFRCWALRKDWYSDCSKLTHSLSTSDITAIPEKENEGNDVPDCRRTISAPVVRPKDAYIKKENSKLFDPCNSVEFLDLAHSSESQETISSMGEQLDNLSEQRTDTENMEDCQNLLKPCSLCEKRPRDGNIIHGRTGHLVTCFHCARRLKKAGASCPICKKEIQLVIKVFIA
Chain of Paired box protein Pax-8 (Q06710 whole entry): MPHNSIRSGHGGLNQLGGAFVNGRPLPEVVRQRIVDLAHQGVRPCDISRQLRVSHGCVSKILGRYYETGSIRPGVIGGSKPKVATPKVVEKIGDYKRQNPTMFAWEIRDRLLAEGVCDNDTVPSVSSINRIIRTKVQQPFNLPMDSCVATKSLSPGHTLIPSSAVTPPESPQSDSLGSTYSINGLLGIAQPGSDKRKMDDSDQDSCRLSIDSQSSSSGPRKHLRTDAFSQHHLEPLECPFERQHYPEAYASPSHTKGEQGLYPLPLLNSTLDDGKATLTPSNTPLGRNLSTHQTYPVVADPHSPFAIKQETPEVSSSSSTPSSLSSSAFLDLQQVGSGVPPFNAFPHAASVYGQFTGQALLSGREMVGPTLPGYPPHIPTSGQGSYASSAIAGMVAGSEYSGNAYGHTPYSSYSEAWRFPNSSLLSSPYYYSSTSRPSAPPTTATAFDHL
Chain of C-C chemokine receptor type 6 (P51684 whole entry): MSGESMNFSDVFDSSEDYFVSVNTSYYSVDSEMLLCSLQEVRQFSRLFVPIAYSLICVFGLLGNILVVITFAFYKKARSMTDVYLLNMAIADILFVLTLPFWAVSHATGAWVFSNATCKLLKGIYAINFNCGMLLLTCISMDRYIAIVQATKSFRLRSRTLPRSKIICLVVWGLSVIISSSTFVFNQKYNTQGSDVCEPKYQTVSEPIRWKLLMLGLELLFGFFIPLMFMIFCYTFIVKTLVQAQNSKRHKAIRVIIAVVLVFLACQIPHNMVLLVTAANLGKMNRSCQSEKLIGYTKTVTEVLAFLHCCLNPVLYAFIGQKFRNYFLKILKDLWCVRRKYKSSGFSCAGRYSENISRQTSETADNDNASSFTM

Q: What does the source list for O=[N+]([O-])c1ccccc1S(=O)(=O)Nc1cccc2cccnc12?
A: IC50 [1]: > 32 µM (inactive); EC50 [2]: 14.1 µM (active); EC50 (Mu-type opioid receptor): > 32 µM (inactive); EC50 [3]: > 32 µM (inactive); EC50 [4]: 11.6 µM (active); CC50 (Vero [5]): 8.6 µM (active); EC50 [6]: > 120 µM (not active); IC50 [7]: 7.84 µM (active); EC50 (Beta-galactosidase [8]): > 31.5 µM (inactive); IC50 [9]: > 32 µM; IC50 [10]: 3.73 µM (active)

Q: What does the source list for COc1ccccc1N1CCN(CCCCCCOc2ccc(F)cc2)CC1?
A: IC50 (Saccharomyces cerevisiae): 13.2 µM (active); IC50 [11]: 9.66 µM (active)

Q: With Cc1cc(C)nc(N/N=C/C2=C(O)CC(c3ccc(F)cc3)CC2=O)n1 (centres undefined) as the compound, how does the EC50 (cells [12]) read?
A: 15.9 µM (active)

Q: What about the EC50 (cells [13]) of the same compound?
A: > 350 µM (not active)

Q: What about the IC50 [14] of the same compound?
A: > 66.6 µM (inactive)

Q: And the IC50 (Beta-galactosidase [15])?
A: > 66.6 µM (inactive)

Q: And the CC50 (Vero [16])?
A: > 25 µM (active)

Q: For COc1ccc(S(=O)(=O)N2CCOCC2)cc1NC(=O)c1ccc(Cl)cc1, which IC50 (Cannabinoid receptor 2 [17]) is on record?
A: > 32 µM (inactive)

Q: And the EC50 [18]?
A: 0.138 µM (active)

Q: What about the EC50 (Cannabinoid receptor 2 [19]) of the same compound?
A: > 32 µM (inactive)

Q: And the EC50 [20]?
A: > 32 µM (inactive)

Q: What about the IC50 (Cannabinoid receptor 1 [21]) of the same compound?
A: > 32 µM (inactive)

Q: And the EC50 (Cannabinoid receptor 1 [22])?
A: 5.08 µM (active)

Q: And the IC50 [23]?
A: 12.3 µM (inactive)

Q: What does the source list for COc1cccc2c1C(=O)c1c(O)c3c(c(O)c1C2=O)C[C@](O)(C(C)=O)C[C@H]3O[C@@H]1C[C@@H](N)[C@@H](O)[C@@H](C)O1?
A: EC50 [2]: < 0.1 µM (active); EC50 [4]: 0.102 µM (active); EC50 [6]: < 0.1 µM (active); AC50 (HeLa): 3.2 µM (active); AC50 (ORF 73): 3.01 µM (active); AC50 (Protein S100-A4): 0.29 µM (active); AC50 (Paired box protein Pax-8): 2.84 µM (active)

Q: For Cc1ccc(O)c(CCc2ccccc2)n1, which EC50 (T-cell) is on record?
A: 9.49 µM (active)

Q: Which IC50 [24] does the source give for O=C(C1CCCCN1Cc1ccccc1)N1CCN(c2ccc([N+](=O)[O-])cc2)CC1 (centres undefined) here?
A: 11.3 µM (inactive)
